Test results: patent US20030124727A1, “Multivalent cationic lipids and methods of using same in the production of lipid particles” (priority 2001, published 2003)

Assays:
[1] = 31P NMR polymorphic phase properties of cationic lipid/DPPS mixtures (bilayer-to-non-bilayer transition); assay type: physicochemical; conditions: for temperature at which the mixture adopts the H∥ phase / non-bilayer structure: mixture with DPPS equimolar with respect to charge, hydrated in distilled water; for 31P NMR lineshape (phase structure) at 25° C.: mixture with DPPS
Text: As noted above, the ability of cationic lipids to induce the hexagonal H∥ phase in combination with anionic lipids correlates well with their transfection properties in plasmid DNA-cationic lipid complexes. The relative ability of cationic lipids to induce the H∥ phase can be ascertained by measuring the bilayer-to-non-bilayer transition temperature (Tc) of the cationic lipid in equimolar mixtures (with respect to charge) with an anionic phospholipid such as 1,2-dipalmitoyl-sn-glycero-3-[phospho-L-serine] (DPPS). The bilayer-to-non-bilayer transition can be conveniently monitored employing ^31P NMR techniques (12).
To evaluate the polymorphic phase properties of mixtures of TODMAC3 and TODMAC6 with DPPS, lipid mixtures containing 40-50 mg DPPS and appropriate molar ratios of cationic lipids N,N-dioleyl-N-N-dimethylammonium chloride (DODAC), TODMAC3, and TODMAC6 were prepared by drying from chloroform solution, placed in 10 mm NMR tubes and hydrated with 1.5 mL distilled water. Free induction decays (FIDs) corresponding to 1000 scans were obtained by using a […] 60° pulse with a […] interpulse delay and a spectral width of 25,000 Hz. A gated two-level proton decoupling was used to ensure sufficient decoupling with minimum sample heating. An exponential multiplication corresponding to 50 Hz of line broadening was applied to the FIDs prior to Fourier transformation. The sample temperature (±1° C.) was regulated using a Bruker B-VT1000 variable temperature unit. Chemical shifts were referenced to 85% phosphoric acid as an external standard.

BHK cells = assay: In vitro transfection of BHK cells with plasmid DNA-cationic lipid complexes (luciferase expression); assay type: cell-based, hamster; conditions: for transfection properties compared among DODAC, TODMAC6 and TODMAC3: complexes formed from ethanol solution, no DOPE, FIG. 4; for transfection potency relative to complexes containing DODAC: cationic lipid/DOPE vesicles, LO18 luciferase plasmid, FIG. 3
Method: Lipoplexes were prepared in distilled water at pDNA concentrations ranging from 12.5-25 μg pDNA/ml at positive-to-negative charge ratios between 0.5-5. Plasmid DNA was added under vortexing to cationic LUVs (cationic lipid/DOPE 1:1). In the absence of the helper lipid DOPE, lipoplexes were prepared by addition of the cationic lipids from ethanol solutions to an aqueous solution containing the pDNA. The amount of ethanol in these formulations was between 0.4-2.3%. The lipoplexes were incubated at room temperature for 30 min, diluted to a final concentration of 2.5 μg pDNA/ml with serum-free media (Dulbecco's Modified Eaglels Medium, DMEM) and subsequently applied to BHK cells.
BHK cells, grown in DMEM supplemented with 10% fetal calf serum (FCS), 100 U/ml of penicillin and 100 μg/ml of streptomycin, were seeded in 96-well plates at a density of 1×10^4 cells per well 24 h before transfection. The next day media was removed and replaced with 100 μl of lipoplexes dispersed in serum-free DMEM (0.25 μg pDNA/100 μl), After 4 hr, lipoplexes were replaced with serum-containing DMEM and cells further incubated for 20 h. After that, the culture medium was aspirated, the cells washed twice with 100 μl of PSS and then lysed through addition of 50 μl of lysis buffer (1% Triton X-100 in PBS). Luciferase activity was measured with a Dynex Luminometer (Dynex model ML3000) using the Luciferase Assay Kit from Promega. The total protein concentration per well was determined using the BCA assay from Pierce. Means and standard deviations were calculated from three independent experiments.
(§1) DNA plasmid complexes containing TODMAC3 and TODMAC6 are usually formed by mixing plasmid DNA with preformed vesicles containing the cationic lipid mixed with equimolar amounts of the- “helper” lipid- dioleoyfphosphatidylethanolamine (DOPE) (17, 1-8). […] FIG. 3 illustrates the transfection properties of complexes prepared at cationic lipid-to-DNA charge ratios (positive to negative) ranging from 0.5 to 5.
In order to test the relative transfection potencies of DODAC, TODMAC6 and TODMAC3 a different procedure was used to associate the cationic lipid with the plasmid to form the complexes. In this method the cationic lipid dissolved in ethanol was introduced into an aqueous solution of the plasmid and DOPE was not present. […] Specifically, for charge ratios −2.5, TODMAC6 complexes gave rise to luciferase expression levels 5-20 fold higher than could be achieved with DODAC or TODMAC3.

[2] = Preparation of vesicles / bilayer structures on dispersion in aqueous medium; assay type: physicochemical; conditions: for preparation of vesicles from cationic lipid/DOPE mixtures: equimolar mixture with DOPE, hydration of lipid film and extrusion; for formation of bilayer structures on dispersion in an aqueous medium: in the presence and absence of DOPE
Method: To prepare large unilamellar vesicles (LUV), mixtures of cationic lipids and DOPE in chloroform were dried under a stream of nitrogen gas and the residual solvent removed under high vacuum for 2 hours. The resulting lipid films were hydrated with distilled water. LUVs were obtained by extruding the lipid dispersions 10 times through two stacked 100-nm pore size polycarbonate filters (Costar Nuclepore polycarbonate membrane, Lipex Biomembranes extruder) (15). Phospholipid concentrations were determined by the inorganic phosphorus assays according to Fiske and Subbarow (16).
as §1

SMILES | temperature at which the mixture adopts the H∥ phase / non-bilayer structure ([1]; 31P NMR) | 31P NMR lineshape (phase structure) at 25° C. [1] | transfection properties compared among DODAC, TODMAC6 and TODMAC3 (BHK cells; charge ratios of two and lower) | temperature at which an H∥ component is visible (limited subset of the DPPS; bulk remains bilayer) ([1]; TODMAC3/DPPS 0.5:1 mol:mol (equimolar in charge), 31P NMR) | temperature of apparently complete H∥ organization ([1]; TODMAC3/DPPS ratio 2:1 on a charge basis) | phase properties of equimolar mixture with DPPS ([1]; equimolar (mol) proportions of TODMAC3 and DPPS, compared with 0.5:1) | preparation of vesicles from cationic lipid/DOPE mixtures [2] | formation of bilayer structures on dispersion in an aqueous medium [2] | transfection potency relative to complexes containing DODAC (BHK cells; charge ratios higher than two (up to 5)) | transfection potency relative to complexes containing DODAC (BHK cells; charge ratios of two or lower) | transfection properties compared among DODAC, TODMAC6 and TODMAC3 (BHK cells; charge ratios above two) | luciferase expression levels higher than could be achieved with DODAC or TODMAC3 (BHK cells; complexes without DOPE, charge ratios −2.5)
CCCCCCCC/C=C\CCCCCCCC[N+](C)(C)CCCCCCCC/C=C\CCCCCCCC.[Cl-] [DODAC, N,N-dioleyl-N-N-dimethylammonium chloride, reference compound] | > 35 °C | bilayer structure | superior | – | – | – | – | – | – | – | – | –
CCCCCCCC/C=C\CCCCCCCC[N+](C)(CCCCCCCC/C=C\CCCCCCCC)CCC[N+](C)(CCCCCCCC/C=C\CCCCCCCC)CCCCCCCC/C=C\CCCCCCCC.[Cl-].[Cl-] [TODMAC3, N,N,N1,N1-Tetraoleyl.N,N′-dimethyl-1,3-propanediammonium Chloride] | – | – | – | ≤ 15 °C | ≥ 25 °C | increased preference for H∥ phase structure | could not be prepared | does not | – | – | – | –
CCCCCCCC/C=C\CCCCCCCC[N+](C)(CCCCCCCC/C=C\CCCCCCCC)CCCCCC[N+](C)(CCCCCCCC/C=C\CCCCCCCC)CCCCCCCC/C=C\CCCCCCCC.[Cl-].[Cl-] [TODMAC6, N,N,N′,N′-Tetraoleyl-N,N′-dimethyl-1,6-hexanediammonium chloride] | ~30 °C | bilayer structure | – | – | – | – | could be readily prepared | readily forms bilayer structures | greater | comparable to or slightly lower | superior to both DODAC and TODMAC3 | 5-20 fold
